This is an account of results in patent US6365613B1, “Fungicidal mixtures” (BASF Aktiengesellschaft, priority 1997, dated 2002).

For this experiment, the system named is Botrytis cinerea. The experiment can be described thus: Activity against Botrytis cinerea on bell peppers (fruit disks, protective spray). The format is in vivo. Particulars: single active ingredient, green bell pepper disks, 4 days at 18° C. How it is done:
Activity against Botrytis cinerea on bell peppers
Disks of green bell peppers were sprayed to runoff point with an aqueous preparation of active ingredient which had been prepared from a stock solution comprising 10% of active compound, 63% of cyclohexanone and 27% of emulsifier. 2 hours after the spray coating had dried on, the fruit disks were inoculated with a spore suspension of Botrytis cinerea containing 1.7×10^6 spores per ml of a 2% strength Biomalz solution. The inoculated fruit disks were subsequently incubated in humid chambers at 18° C. for 4 days. The Botrytis infection on the diseased fruit disks was then evaluated visually.
Evaluation was carried out by determining the infected leaf areas in percent. These percentages were converted into efficacies. The efficacy (E) was calculated as follows using Abbot's formula: […]
α corresponds to the fungal infection of the treated plants in % and β corresponds to the fungal infection of the untreated (control) plants in % An efficacy of 0 means that the infection level of the treated plants corresponds to that of the untreated control plants; an efficacy of 100 means that the treated plants were not infected.
The expected efficacies of the mixtures of the active ingredients were determined using Colby's formula [R. S. Colby, weeds 15 (1967), 20-22] and compared with the observed efficacies.
Colby's formula: E=x+y−x·y/100
E expected efficacy, expressed in % of the untreated control, when using the mixture of the active ingredients A and B at the concentrations a and b x efficacy, expressed in % of the untreated control, when using the active ingredient A at the concentration a y efficacy, expressed in % of the untreated control, when using the active ingredient B at the concentration b

With `CCCCNC(=O)n1c(NC(=O)OC)nc2ccccc21` [Comp. IIa, methyl 1-(butylcarbamoyl)benzimidazol-2-ylcarbamate, reference compound], the “Efficacy in % of the untreated control” value is given as 10% (6.3 ppm in the spray liquor) and 20% (12.5 ppm in the spray liquor).

On to `CO/N=C(/C(=O)OC)c1ccccc1COc1ccccc1C` [Compound Ia], for which the “Efficacy in % of the untreated control” value runs as follows: (6.3 ppm in the spray liquor) 20%; (12.5 ppm in the spray liquor) 30%; (25 ppm in the spray liquor) 30%; (50 ppm in the spray liquor) 50%.

`CO/N=C(/C(=O)OC)c1ccccc1COc1cc(C)ccc1C` [Compound Ic]: the “Efficacy in % of the untreated control” value was found to be 50% (12.5 ppm in the spray liquor) and 80% (25 ppm in the spray liquor).

`COC(=O)NC(=S)Nc1ccccc1NC(=S)NC(=O)OC` [Comp. IIf, dimethyl 4,4′-(o-phenylene)bis(3-thioallophanate), reference compound]: the “Efficacy in % of the untreated control” value by setting is: (12.5 ppm in the spray liquor) 0%; (25 ppm in the spray liquor) 0%; (50 ppm in the spray liquor) 20%.
